Laboratory results as given in patent US10513694B2, “Thienopyrrole compounds and uses thereof” (PROMEGA CORPORATION, priority 2015, dated 2019).

Legend:
[1] = molecular target: NANOLUC® enzyme (Oplophorus gracilirostris, UniProt Q9GV45, A31E/A60N/A81I/F95D/I117V/K70R/L54V/L99Q/M102K/N193R/P142E/Q151K/Q38R/Q45L/V71I/Y165I); assay: Inhibitor IC50 determination (NANOLUC enzyme, furimazine); type: biochemical; conditions: IC50 (uM), 0.4 ng/ml NANOLUC enzyme, final furimazine 10 uM (at Km)
[2] = molecular target: T1, purified Nluc enzyme (Oplophorus gracilirostris, UniProt Q9GV45, A31E/A60N/A81I/F95D/I117V/K70R/L54V/L99Q/M102K/N193R/P142E/Q151K/Q38R/Q45L/V71I/Y165I); type: biochemical; conditions: titration up to 100 μM final; RT 2 hrs; pro-substrate PBI-4442 + DTT
T1 construct: purchased Promega Corporation
T1 sequence (Q9GV45 28-196 with tags or gaps with the stated changes limits assumed): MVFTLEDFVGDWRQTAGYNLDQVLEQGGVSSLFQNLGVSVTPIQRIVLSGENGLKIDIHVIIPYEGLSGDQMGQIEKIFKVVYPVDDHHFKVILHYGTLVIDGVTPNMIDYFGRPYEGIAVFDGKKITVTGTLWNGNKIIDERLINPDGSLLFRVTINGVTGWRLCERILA
In short: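 Purified Nluc enzyme with 20 mM DTT and a pro-substrate reduced by DTT to the Nluc substrate. 11-point 1:2 compound titrations (top 100 μM final) incubated 2 h at RT; luminescence read and IC50 fitted.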

[3] = tested on: Beta-2 Adrenergic Receptor-Nluc (B2AR-Nluc) fusion protein; assay: Cell permeability, B2AR-Nluc in HEK293 or HeLa cells -/+ digitonin; type: cell-based
Procedure: (§1) HEK293 or HeLa cells were transiently transfected with Beta-2 Adrenergic Receptor-Nluc (B2AR-Nluc) fusion protein to anchor and orient Nluc cytosolically. 24 hrs post-transfection, cells were treated with −/+50 μg/mL digitonin to emulate a live and lytic scenario, respectively. Then, intact cells and permeabilized cells were exposed to a compound response curve of thienopyrrole compound up to 2 hrs. 10 μM furimazine (Promega Corp.) was added, and luminescence was measured. If a thienopyrrole compound (inhibitor) was permeable, the dose-response curves for both live and permeabilized cells overlapped. However, if a thienopyrrole compound was impermeable, the EC50 was right-shifted in the live cells relative to the permeabilized cells.

[4] = tested on: Beta-2 Adrenergic Receptor-Nluc (B2AR-Nluc) fusion protein; assay: Cell permeability, B2AR-Nluc in HEK293 -/+ digitonin; type: cell-based; conditions: HEK293 B2AR-Nluc -/+ 50 μg/mL digitonin; up to 2 hrs
Procedure: as §1, with “HEK293” for “HEK293 or HeLa cells”, “cytosolically and pGEM-3z carrier DNA (1:100).” for “cytosolically.”

[5] = tested on: Nluc-ADRB2 (extracellular Nluc) or ADRB2-Nluc (intracellular Nluc); assay: Cell permeability with bioluminescent imaging (HeLa, Nluc-ADRB2 / ADRB2-Nluc); type: cell-based; conditions: 30 μM compound, 10 μM furimazine
Procedure: HeLa cells were transiently transfected with Nluc-ADRB2 (extracellular Nluc) or ADRB2-Nluc (intracellular Nluc) to anchor and orient Nluc extracellularly or intracellularly, respectively. 24 hrs post-transfection, cells were treated with −/+30 μM of a thienopyrrole compound, JRW-0147, JRW-0013, and JRW-0344. 10 μM furimazine was added, and luminescence was detected by imaging on the Olympus LV200.

[6] = molecular target: Nluc (Oplophorus gracilirostris, UniProt Q9GV45, A31E/A60N/A81I/F95D/I117V/K70R/L54V/L99Q/M102K/N193R/P142E/Q151K/Q38R/Q45L/V71I/Y165I); assay: Multiplex RealTime-Glo / Caspase-Glo 3/7 in DMEM media; type: biochemical; design: purchased Promega Corporation; conditions: for Avg (luminescence), 1 hour: RealTime-Glo reagent in DMEM + Caspase-Glo 3/7
Nluc, sequence (Q9GV45 28-196 with tags or gaps with the stated changes limits assumed): as above
Procedure: In a Corning 3570 assay plate, 1× REAL-TIME-GLO™ MT Cell Viability assay reagent was prepared in 40 μL DMEM media (n=3) and incubated overnight. Next, 40 μL of a titration of JRW-0147 or JRW-0344 (2× concentration in CASPASE-GLO® 3/7 Assay Reagent (Promega Corporation)) was added. The reactions were incubated at room temperature, and luminescence determined at 1 hour.

NANOLUC® enzyme, sequence (Q9GV45 28-196 with tags or gaps with the stated changes limits assumed): as above

SMILES	IC50 [1]	Inhibition of purified Nluc enzyme (FIG. 2) [2]	Cell permeability [3]	Cell permeability, EC50 in Live vs Lytic cells (FIGS. 17A-17C) [4]	Inhibition of Nluc oriented extracellularly / intracellularly by imaging (FIG. 19) [5]	S/B, 1 hour ([6]; [cmpd] final 0.09765625 μM)	Avg (luminescence), 1 hour ([6]; [cmpd] final 0.09765625 μM)	S/B, 1 hour ([6]; [cmpd] final 0.1953125 μM)	Avg (luminescence), 1 hour ([6]; [cmpd] final 0.1953125 μM)	S/B, 1 hour ([6]; [cmpd] final 0.390625 μM)	Avg (luminescence), 1 hour ([6]; [cmpd] final 0.390625 μM)	S/B, 1 hour ([6]; [cmpd] final 0.78125 μM)	Avg (luminescence), 1 hour ([6]; [cmpd] final 0.78125 μM)	S/B, 1 hour ([6]; [cmpd] final 1.5625 μM)	Avg (luminescence), 1 hour ([6]; [cmpd] final 1.5625 μM)	S/B, 1 hour ([6]; [cmpd] final 3.125 μM)	Avg (luminescence), 1 hour ([6]; [cmpd] final 3.125 μM)	S/B, 1 hour ([6]; [cmpd] final 6.25 μM)	Avg (luminescence), 1 hour ([6]; [cmpd] final 6.25 μM)	S/B, 1 hour ([6]; [cmpd] final 12.5 μM)	also measured
CCN(C(=O)Cn1c(C(=O)N[C@H]2CC[C@H](C(=O)OC)CC2)cc2sccc21)c1cccc(C)c1 [JRW-0013, trans-methyl-4-(4-(2-(ethyl(m-tolyl)amino)-2-oxoethyl)-4H-thieno[3,2-b]pyrrole-5-carboxamido)cyclohexane-1-carboxylate]	0.14 µM	capable of inhibiting purified Nluc enzyme	cell-permeable	cell permeable control characterized by similar EC50 in Live vs Lytic cells	inhibited Nluc in either orientation	–	–	–	–	–	–	–	–	–	–	–	–	–	–	–	–
CCN(C(=O)Cn1c(C(=O)N[C@H]2CC[C@H](C(=O)NCCCCCC(=O)O)CC2)cc2sccc21)c1cccc(C)c1 [JRW-0147, 6-(trans-4-(4-(2-(ethyl(m-tolyl)amino)-2-oxoethyl)-4H-thieno[3,2-b]pyrrole-5-carboxamido)cyclohexane-1-carboxamido)hexanoic acid]	0.094 µM	capable of inhibiting purified Nluc enzyme	cell-impermeable	cell impermeable characterized by right shifted EC50 in Live vs. Lytic cells	inhibit the classic ring-like structure, but not when Nluc is orientated intracellularly	0.84	117067	0.89	124500	0.85	117833	0.77	106867	0.47	65173	0.32	45167	0.20	27817	0.12	Avg (luminescence), 1 hour ([6]; [cmpd] final 12.5 μM): 17293; S/B, 1 hour ([6]; [cmpd] final 25 μM): 0.08; Avg (luminescence), 1 hour ([6]; [cmpd] final 25 μM): 10699; S/B, 1 hour ([6]; [cmpd] final 50 μM): 0.06; Avg (luminescence), 1 hour ([6]; [cmpd] final 50 μM): 8136; S/B, 1 hour ([6]; [cmpd] final 100 μM): 0.05; Avg (luminescence), 1 hour ([6]; [cmpd] final 100 μM): 6568
CCN(C(=O)Cn1c(C(=O)N[C@H]2CC[C@H](C(=O)NCCCCCCS(=O)(=O)[O-])CC2)cc2sccc21)c1cccc(C)c1.[Na+] [JRW-0344, Sodium 6-(trans-4-(4-(2-(ethyl(m-tolyl)amino)-2-oxoethyl)-4H-thieno[3,2-b]pyrrole-5-carboxamido)cyclohexane-1-carboxamido)hexane-1-sulfonate]	0.077 µM	–	–	cell impermeable characterized by right shifted EC50 in Live vs. Lytic cells	inhibit the classic ring-like structure, but not when Nluc is orientated intracellularly	0.71	112533	0.80	126333	0.88	138900	0.61	95993	0.41	65097	0.21	33523	0.12	19560	0.10	Avg (luminescence), 1 hour ([6]; [cmpd] final 12.5 μM): 15547; S/B, 1 hour ([6]; [cmpd] final 25 μM): 0.06; Avg (luminescence), 1 hour ([6]; [cmpd] final 25 μM): 9761; S/B, 1 hour ([6]; [cmpd] final 50 μM): 0.04; Avg (luminescence), 1 hour ([6]; [cmpd] final 50 μM): 6790; S/B, 1 hour ([6]; [cmpd] final 100 μM): 0.03; Avg (luminescence), 1 hour ([6]; [cmpd] final 100 μM): 5523
